Measured values published in PMC10305287, “Design, Synthesis, and Evaluation of the COX-2 Inhibitory Activities of New 1,3-Dihydro-2H-indolin-2-one Derivatives” (Molecules, 2023).
Entries after “also recorded” stand apart in the source; their conditions may differ.

Legend:
RAW 264.7 cells = assay: Cytotoxicity assay (CCK-8) on RAW 264.7 cells; assay type: cell-based, mouse
Method: The RAW 264.7 murine macrophage cells were obtained from the Cell Bank of the Chinese Academy of Sciences (Shanghai, China). RAW 264.7 cells were cultured in DMEM (Dulbecco’s Modified Eagle Medium) medium supplemented with 10% fetal bovine serum and 1% penicillin/streptomycin at 37 °C and 5% CO2 in a saturated humidified incubator. The Cell Counting Kit-8 (CCK-8) method was used to evaluate the cytotoxicity of all the compounds on RAW 264.7 cells in vitro. […] After 24 h of cultivation, the cells were incubated with a CCK-8 solution (10 µL). After incubation at 37 °C and 5% CO2 for 2–4 h, the optical density (OD) was recorded at 450 nm by a microplate reader. The half-maximal inhibitory concentration (IC50) was calculated by SPSS 22.0 software. PDTC was used as a positive control.

[1] = test system: NO production in LPS-stimulated RAW 264.7 cells; assay: Inhibition of NO production in LPS-stimulated RAW 264.7 cells; assay type: cell-based, murine; details: for Anti-inflammatory activity, NO production (in words): LPS-stimulated RAW 264.7 cells; for IC50: LPS-activated RAW 264.7 cells, mean ± SD, n = 3
Method: RAW 264.7 cells were cultured in DMEM medium supplemented with 10% fetal bovine serum and 1% penicillin/streptomycin at 37 °C and 5% CO2 in a saturated humidified incubator. Then cells were seeded in 24-well plates (4 × 10^5 cells/well) after 24 h of incubation and treated with different concentrations of compounds (80, 40, 20, and 5 μM) for 2 h. The cells were stimulated with LPS (5 μg/mL) for 24 h, the supernatant was transferred to a new 24-well microtiter plate, and the NO concentration in the cell supernatant was calculated using an NO detection kit (Beyotime Company, Shanghai, China).

[2] = molecular target: T1, human recombinant COX-2 enzyme (Homo sapiens, UniProt P35354); assay: In vitro COX-2 inhibitory assay (Cyclooxygenase-2 Inhibitor Screening Kit); assay type: biochemical; details: for IC50: human recombinant COX-2, fluorescence kit, mean ± SD, n = 3; for COX-2 inhibitory activity (in words): human recombinant COX-2, screening kit
T1 construct: purchased Beyotime Company, Shanghai, China
T1 sequence (P35354 18-604): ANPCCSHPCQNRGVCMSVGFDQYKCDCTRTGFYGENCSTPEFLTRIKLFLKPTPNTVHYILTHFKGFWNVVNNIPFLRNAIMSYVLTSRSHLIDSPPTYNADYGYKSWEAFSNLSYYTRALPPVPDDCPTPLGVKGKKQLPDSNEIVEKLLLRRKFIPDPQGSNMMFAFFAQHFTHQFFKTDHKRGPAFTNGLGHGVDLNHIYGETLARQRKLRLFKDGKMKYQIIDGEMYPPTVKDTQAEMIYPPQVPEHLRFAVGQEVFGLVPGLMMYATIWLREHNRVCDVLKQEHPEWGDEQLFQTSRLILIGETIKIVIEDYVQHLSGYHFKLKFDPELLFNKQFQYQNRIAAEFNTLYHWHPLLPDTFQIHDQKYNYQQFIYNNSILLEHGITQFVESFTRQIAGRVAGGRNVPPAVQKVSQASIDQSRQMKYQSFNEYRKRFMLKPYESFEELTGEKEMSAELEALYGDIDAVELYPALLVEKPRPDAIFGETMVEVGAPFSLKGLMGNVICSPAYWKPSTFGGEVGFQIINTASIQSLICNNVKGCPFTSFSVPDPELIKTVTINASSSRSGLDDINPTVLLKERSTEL
Method: The reaction was started by the addition of COX-2 substrate and allowed to proceed for 5 min. The intensity of fluorescence at an emission wavelength of 590 nm upon 560 nm excitation was measured using a microplate reader (Thermo Varioskan LUX, Waltham, MA, USA). All tests were repeated three times independently.

COX-2 = details: read-out: IC50 (COX-2); cited from earlier work
[3] = CCK-8, concentration not stated

Cc1ccc(S(=O)(=O)Nc2ccc3c(c2)C(=Cc2cccc(C(F)(F)F)c2)C(=O)N3)cc1 [Compound 9f]
melting point: 191.1 to 191.5 °C

COc1cccc(C=C2C(=O)N(C(C)=O)c3cc(Cl)ccc32)c1 [Compound 4s]
melting point: 141.3 to 143.2 °C | Cytotoxicity (in words) (RAW 264.7 cells; CCK-8, at 100 μM): almost no cytotoxicity

CC(=O)N1C(=O)C(=Cc2cccc(C(F)(F)F)c2)c2cc(N)ccc21 [Compound 4e]
Anti-inflammatory activity, NO production (in words) [1]: obvious anti-inflammatory activity | IC50 ([1]; Mus musculus, RAW264.7): 13.5 ± 0.48 µM | IC50 [2]: 3.34 ± 0.05 µM | melting point: 165.9 to 166.2 °C | Cytotoxicity (in words) (RAW 264.7 cells; CCK-8, at 100 μM): almost no cytotoxicity; also recorded: no significant cytotoxicity | Cytotoxicity (in words) (RAW 264.7 cells; [3]): weak cytotoxicity

CC(=O)N1C(=O)C(=Cc2ccccc2C(F)(F)F)c2ccc(Cl)cc21 [Compound 4k]
IC50 [2]: > 20 µM | melting point: 131 to 133.6 °C

S=C(S)N1CCCC1 [PDTC, Ammonium pyrrolidinedithiocarbamate, reference compound]
IC50 [1]: 13.7 ± 0.88 µM

O=C1Nc2ccc(NS(=O)(=O)c3ccc([N+](=O)[O-])cc3)cc2C1=Cc1cccc(C(F)(F)F)c1 [Compound 9d]
Anti-inflammatory activity, NO production (in words) [1]: obvious anti-inflammatory activity | IC50 ([1]; Mus musculus, RAW264.7): 10 ± 0.27 µM | melting point: 226.5 to 226.9 °C | Cytotoxicity (in words) (RAW 264.7 cells; [3]): weak cytotoxicity

O=C1Cc2cc(/N=C/c3cccc(C(F)(F)F)c3)ccc2N1 [Compound 9h]
Anti-inflammatory activity, NO production (in words) [1]: no anti-inflammatory activity | IC50 [2]: 2.35 ± 0.04 µM | COX-2 inhibitory activity (in words) [2]: good inhibitory activity | melting point: 166.3 to 166.8 °C | Cytotoxicity (in words) (RAW 264.7 cells; CCK-8, at 100 μM): almost no cytotoxicity | Cytotoxicity (in words) (RAW 264.7 cells; [3]): no cytotoxicity

O=C1Cc2cc(N=Cc3cc(C(F)(F)F)cc(C(F)(F)F)c3)ccc2N1 [Compound 9i, 5-((3,5-bis(trifluoromethyl)benzylidene)amino)indolin-2-one]
Anti-inflammatory activity, NO production (in words) [1]: no anti-inflammatory activity | IC50 [2]: 2.42 ± 0.1 µM | COX-2 inhibitory activity (in words) [2]: good inhibitory activity | melting point: 191.1 to 191.5 °C | Cytotoxicity (in words) (RAW 264.7 cells; CCK-8, at 100 μM): almost no cytotoxicity | Cytotoxicity (in words) (RAW 264.7 cells; [3]): no cytotoxicity

CC(=O)N1C(=O)/C(=C\c2cccc(C(F)(F)F)c2)c2ccc(C(F)(F)F)cc21 [Compound 4a]
Anti-inflammatory activity, NO production (in words) [1]: obvious anti-inflammatory activity | IC50 ([1]; Mus musculus, RAW264.7): 17.8 ± 1.86 µM | IC50 [2]: 19.9 ± 4.76 µM | melting point: 131.2 to 132.1 °C | Cytotoxicity (in words) (RAW 264.7 cells; [3]): weak cytotoxicity

CC(=O)N1C(=O)C(=Cc2ccc(C(F)(F)F)cc2)c2ccc(Cl)cc21 [Compound 4i]
Anti-inflammatory activity, NO production (in words) [1]: obvious anti-inflammatory activity | IC50 ([1]; Mus musculus, RAW264.7): 20.4 ± 1.61 µM | melting point: 142.9 to 144.1 °C | Cytotoxicity (in words) (RAW 264.7 cells; [3]): weak cytotoxicity

CC(=O)N1C(=O)C(=Cc2cccc(C(F)(F)F)c2)c2ccccc21 [Compound 4j]
Anti-inflammatory activity, NO production (in words) [1]: obvious anti-inflammatory activity | IC50 ([1]; Mus musculus, RAW264.7): 16.3 ± 0.35 µM | melting point: 121.5 to 123.3 °C | Cytotoxicity (in words) (RAW 264.7 cells; [3]): weak cytotoxicity

CC(=O)N1C(=O)/C(=C/c2cccc(C(F)(F)F)c2)c2ccc(C(F)(F)F)cc21 [Compound 4b]
melting point: 91.3 to 92.8 °C
